The results in this text go back to PubChem BioAssay (NCI).

Common to all, as to assay: growth of human tumour cells (NCI), 48 h
The subject of experiment [1] is UACC-62 melanoma.
The test system of experiment [2] is OVCAR-5 ovarian.
The test system of experiment [3] is NCI-H23 lung.
Experiment [4] concerns NCI-H226 lung.
In experiment [5] the test system is ACHN renal.
The test system of experiment [6] is SK-OV-3 ovarian.
The subject of experiment [7] is SK-MEL-2 melanoma.
For experiment [8], the system named is RXF 393 renal.
The subject of experiment [9] is TK-10 renal.

Where “and” joins values, the source holds several entries; their conditions need not be identical. Equal values may be shown once.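 Step 1: Grow cells in 96-well plates. Step 2: Expose to compound for 48 hours at 5 concentrations. Step 3: Interpolate endpoints linearly; if unreached, use highest concentration. GI50 = concentration required for 50% inhibition of growth. TGI is the concentration that stops growth completely.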 Bounds are passed on as bounds.

Turning to `O=C(N/C(=C\c1cccc([N+](=O)[O-])c1)c1nc2ccccc2[nH]1)c1ccccc1`, the TGI in [1], in experiment [2], in [3], in experiment [4], in [5] and in experiment [6] was greater than 100 µM each time. Further, the TGI in experiment [7] was greater than 100 µM.

For `NC1CCCCC1N.O=C1C=C/C(=C(/c2ccc(O)c(Br)c2)c2ccccc2S(=O)(=O)[O-])C=C1Br.O=C1C=C/C(=C(/c2ccc(O)c(Br)c2)c2ccccc2S(=O)(=O)[O-])C=C1Br.[Pt+4]`, the GI50 in experiment [8] was 19.8 µM; in experiment [1] it was 9.45 µM; in [2], 2 µM; in [9] it was 57.2 µM; in experiment [3], 2.88 µM; in experiment [5], 1.42 µM. Also, the GI50 in [6] is 54.2 µM; in [7], 10.1 µM. Also, the TGI in experiment [8] was 89.7 µM; in experiment [1] it was greater than 100 µM; in [2], 87.7 µM; in experiment [9], greater than 100 µM; in experiment [3], greater than 100 µM; in experiment [5], greater than 100 µM. The TGI in experiment [6] and in experiment [7] was greater than 100 µM throughout.

As for `CSc1ccc2c(cc1=O)[C@@H](NC(=O)c1ccc(Cl)cc1)CCc1cc(O)c(O)c(O)c1-2`, the TGI in experiment [8] is greater than 100 µM; in experiment [1], 68.1 µM; in experiment [2] it was greater than 100 µM; in experiment [9], greater than 100 µM; in [3], greater than 100 µM; in [4], greater than 100 µM. For the same compound, the TGI in experiment [5], in experiment [6] and in [7] was greater than 100 µM throughout.

As for `CCOC(=O)C(CCC(N)=O)(CCC(=O)OC)C(=O)OCC`, the TGI in experiment [8], in [1], in experiment [2], in experiment [9], in experiment [3] and in [4] was greater than 100 µM in each case. In addition, the TGI in experiment [5] and in [6] was greater than 100 µM in each case.

As to `COC(=O)c1ncc2c(=O)[nH]c3ccccc3c2c1C(=O)OC`, the TGI in experiment [8], in experiment [1], in experiment [2], in [9], in experiment [3] and in experiment [4] was greater than 100 µM throughout. In addition, the TGI in experiment [5] and in experiment [7] was greater than 100 µM in each case.

With `N#CCC(=O)N/N=C1/C(=O)N(c2cc(Cl)ccc2Cl)C(=O)C(=O)C1c1nc2ccccc2s1` (configuration not stated), the TGI is 28.5 µM in [8]; 93.2 µM in experiment [1]; greater than 100 µM in experiment [2]; greater than 100 µM in [9]; greater than 100 µM in experiment [3]; greater than 100 µM in experiment [4]. In addition, the TGI in experiment [5], in [6] and in experiment [7] was greater than 100 µM throughout.

Take `Cc1ccc(/C=C(\NC(=O)c2ccccc2)c2nc3ccccc3[nH]2)cc1`: the TGI in experiment [8], in experiment [1], in [2], in [9], in [3] and in [5] was greater than 100 µM each time. Moreover, in experiment [7], the TGI was 80.1 µM.

For `COC(=O)[C@@]1(C)C(=O)CC[C@@H]1C=O`, the TGI in experiment [1], in experiment [2], in experiment [9], in [3], in [4] and in [5] was greater than 100 µM throughout. For the same compound, the TGI in experiment [6] and in experiment [7] was greater than 100 µM throughout.

For the compound `COc1cccc(-c2cc(=O)c3cc(N4CCOCC4)ccc3[nH]2)c1`, the GI50 in experiment [1] is 0.041 µM; in [2], 0.268 µM; in experiment [9], 4.84 µM; in experiment [3] it was 0.55 µM; in experiment [4], 0.0806 µM; in [5] it was 0.0709 µM. For the same compound, the GI50 is 0.0268 µM and 0.044 µM in experiment [6]; 0.0937 µM in experiment [7]. Moreover, the TGI in experiment [2] was greater than 100 µM; in experiment [9] it was greater than 100 µM; in [5], greater than 100 µM; in [6], 36.8 µM.

As to `CCOc1cn(C2OC(CO)C(O)C2O)c(=O)[nH]c1=O` (configuration not stated), the TGI in experiment [8], in experiment [1], in experiment [2], in experiment [9], in [3] and in experiment [4] was greater than 100 µM in each case. Also, the TGI in experiment [5], in [6] and in [7] was greater than 100 µM each time.

Regarding `CC1=NN(C(=O)Nc2ccc(Cl)cc2)C(=O)C2CCC(=O)N12` (configuration not stated), the TGI in [8], in [1], in experiment [9], in experiment [3], in experiment [5] and in experiment [6] was greater than 100 µM each time. This compound yielded a TGI in experiment [7] greater than 100 µM.

For the compound `O=C(CCc1ccccc1)NS(=O)(=O)c1ccccc1`, the TGI in experiment [8], in experiment [1], in experiment [2], in experiment [9], in experiment [3] and in experiment [4] was greater than 100 µM throughout. Besides, the TGI in [5], in [6] and in experiment [7] was greater than 100 µM in each case.

In the case of `CC(=O)OCCOCNC(=S)N/N=C/c1cc([N+](=O)[O-])ccc1O`, the TGI in experiment [8], in [1], in [2], in [9], in experiment [3] and in experiment [4] was greater than 100 µM each time. Besides, the TGI in [5], in [6] and in experiment [7] was greater than 100 µM throughout.

For `CCOC(=O)C1=C(C)NC2=C(C(=O)N(c3ccccc3)C2c2ccccc2)C1c1ccccc1` (configuration not stated), the TGI worked out at 26.7 µM in experiment [1]; 29.8 µM in [2]; 45.2 µM in experiment [9]; 33.7 µM in experiment [3]; 37.1 µM in experiment [4]; 27 µM in experiment [5]. Besides, the TGI in [6] amounted to 31.4 µM; in [7], 33.5 µM.

Take `CC(C)(C)C(=O)Nc1cccc2oc(-c3ccccc3)cc12`: the TGI in experiment [8], in experiment [1], in experiment [3], in [5], in [6] and in [7] was greater than 100 µM in each case.

Consider `COc1ccc(C2ON(c3ccccc3)CC=C2C)cc1` (configuration not stated), for which the TGI in [8], in experiment [1], in experiment [2], in [9], in [3] and in experiment [4] was greater than 100 µM each time. Moreover, the results for the TGI in [5], in experiment [6] and in experiment [7] were greater than 100 µM, greater than 100 µM and 78.3 µM, respectively.

With `O=C(OCCCl)C1OC(n2cc(F)c(=O)[nH]c2=O)CC1O` (configuration not stated), the TGI in experiment [8], in experiment [1], in [2], in experiment [9], in experiment [3] and in experiment [4] was greater than 100 µM in each case. Moreover, the TGI in [5], in [6] and in experiment [7] was greater than 100 µM throughout.

`C[C@@H](NS(=O)(=O)c1ccc(NC(=O)c2ccccc2)cc1)C(=O)O`: the TGI in experiment [8], in experiment [1], in experiment [2], in experiment [9], in experiment [3] and in [5] was greater than 100 µM throughout. The TGI in [6] and in experiment [7] was greater than 100 µM throughout.

As to `CC(C)(C)c1cc(CCCCCCCC2(CCCCCCCc3cc(C(C)(C)C)cc(C(C)(C)C)c3)OC(COCCOCCCCCC#N)C(COCCOCCCCCC#N)O2)cc(C(C)(C)C)c1` (configuration not stated), the TGI in [8], in experiment [1], in experiment [2], in [9], in experiment [3] and in [4] was greater than 100 µM throughout. Further, the TGI in [5], in experiment [6] and in experiment [7] was greater than 100 µM throughout.

With `Cc1ccc(NC(=O)CC/C(CC(=O)C(C)(C)C)=N\NC(=O)C[n+]2ccccc2)cc1C`, the TGI in experiment [8], in experiment [1], in [2], in experiment [9], in [3] and in [4] was greater than 100 µM throughout. Besides, the TGI in [5], in experiment [6] and in [7] was greater than 100 µM each time.

Take `CN(C)CCC(CCN(C)C)=NO`: the TGI in experiment [8], in [1], in experiment [9], in [3], in experiment [5] and in experiment [6] was greater than 100 µM in each case. In experiment [7], this compound registered a TGI greater than 100 µM.

Turning to `C=CC(=O)NC(N)=NC#N`, the GI50 in experiment [8] was 149 µM. Further, the TGI was 98.1 µM and 286 µM in [8]; 294 µM in [1]; 317 µM in experiment [2]; 272 µM in experiment [9]; 344 µM in experiment [3]; 353 µM in [4]. Moreover, the TGI in experiment [5] turned out to be 245 µM; in experiment [6], 315 µM.

Turning to `Cc1ccc(S(=O)(=O)N2CCN(C=S)CC2)cc1`, the TGI in [8], in [1], in experiment [2], in experiment [9], in [3] and in experiment [5] was greater than 100 µM throughout. Besides, the TGI in experiment [6] and in experiment [7] was greater than 100 µM in each case.

Consider `CC(=O)O[C@H]1CCN2C(=O)C=CC(OCc3ccccc3)C12` (some centres not stated), for which the TGI in experiment [1], in experiment [2], in experiment [9], in experiment [3], in experiment [4] and in experiment [5] was greater than 100 µM in each case. For the same compound, the TGI in [6] and in experiment [7] was greater than 100 µM each time.

In the case of `COc1cc2oc(-c3ccccc3)cc(=O)c2c(O)c1C`, the TGI in [1], in experiment [2], in experiment [9], in experiment [3], in [4] and in experiment [5] was greater than 100 µM each time. The TGI in experiment [6] and in experiment [7] was greater than 100 µM throughout.

As to `COc1ccc(C(=O)c2c3cc(OC)c(OC)c(OC)c3cc[n+]2C)cc1`, the TGI was greater than 100 µM in [8]; greater than 100 µM in experiment [2]; greater than 100 µM in [9]; 66.5 µM in experiment [3]; 65.2 µM in experiment [4]; greater than 100 µM in experiment [5]. The TGI in [6] was greater than 100 µM; in [7], 52.2 µM.

As to `COc1cc(CC2c3cc(OC)c(OC)cc3CCN2C)ccc1O` (configuration not stated), the TGI in [2], in experiment [9], in experiment [3], in experiment [5] and in [7] was greater than 100 µM in each case.

In the case of `O=C(Cc1nc2ccccc2o1)C(=O)Nc1cccc(Cl)c1`, the TGI in [8], in [1], in [9], in [3], in experiment [4] and in experiment [5] was greater than 100 µM each time. Further, the TGI in [6] and in experiment [7] was greater than 100 µM each time.

Turning to `CCn1c2ccccc2c(=O)c2c(OC)ccc(OC)c21`, the TGI in [8] is 80.1 µM; in experiment [1] it was greater than 100 µM; in experiment [2], greater than 100 µM; in [3], greater than 100 µM; in [4], greater than 100 µM; in experiment [5], greater than 100 µM. The TGI in [6] and in experiment [7] was greater than 100 µM in each case.

`O=C1C(=C([O-])c2ccccc2)C(=O)c2ccccc21.O=C1C(=C([O-])c2ccccc2)C(=O)c2ccccc21.[Mn+2]`: the GI50 in experiment [8] is 89.6 µM; in experiment [1], 5.48 µM; in experiment [2] it was greater than 100 µM; in [9], greater than 100 µM; in experiment [4] it was 32 µM; in experiment [7], greater than 100 µM. The TGI in [8], in experiment [1], in experiment [2], in experiment [9], in [4] and in experiment [7] was greater than 100 µM throughout.
